Results taken from patent US9539273B2, “Targeted delivery of anti-fungal agents” (EDH Biotech Corp, priority 2013, dated 2017).

Assay: Binding of stilbene derivatives to chitosan, dissociation constants by indirect difference spectroscopy
Settings: qualitative statement on binding affinity
Source text: Binding studies of stilbene derivatives to chitosan or MHEC

Row | binding to chitosan (in words) | Structure (SMILES)
1 | no significant improvement in binding | O=S(=O)(O)c1cc(Nc2nc(Nc3ccccc3)nc(N(CCO)CCO)n2)ccc1/C=C/c1ccc(Nc2nc(Nc3ccccc3)nc(N(CCO)CCO)n2)cc1S(=O)(=O)O [calcofluor white]
2 | no significant improvement in binding | O=S(=O)(O)c1cc(Nc2nc(NCCO)nc(Nc3ccccc3)n2)ccc1C=Cc1ccc(Nc2nc(NCCO)nc(Nc3ccccc3)n2)cc1S(=O)(=O)O [OB85]

Row | Structure (SMILES) | binding to chitosan (in words)
3 | Nc1ccc(C=Cc2ccc(N)cc2S(=O)(=O)O)c(S(=O)(=O)O)c1 [4,4′-diaminostilbene-2,2′-disulfonic acid] | neither the core structure itself nor its bis(dichlorotriazine) derivative (R^4a═R^6a═R^4b═R^6b═Cl) binds to chitosan
